According to paper PMC2866172 (Journal of medicinal chemistry, 2010):
Read-outs that look alike come from different tables or passages of the source.

Legend:
[1] = mice, [14C]INH, 10 mg/kg s.c., cited from earlier work
[2] = about 3 h after i.v. administration of 108.7 mg INH, [14C]INH tracer; cited from earlier work
[3] = PPB determination in pooled baboon plasma; settings: monkey, pooled plasma
[4] = humans, cited from earlier work
[5] = monkeys, 6 h after i.v. administration of [14C]RIF; cited from earlier work
[6] = patients, 150 mg oral dose, cited from earlier work
[7] = in vitro; settings: monkey, plasma

Row | SMILES | INH concentration in brain ([1]; 30 min) | INH concentration in brain ([1]; 60 min) | INH concentration in surgically removed normal human lung [2] | fraction unbound at 10 min [3] | INH CSF concentration ([4]; 8.5 mg/kg oral dose, 2 h) | INH CSF concentration ([4]; 108.7 mg oral dose, 1 h) | RIF concentration in heart [5] | RIF concentration in kidney [5] | RIF concentration in liver [5] | RIF concentration in lung [5] | RIF bile concentration ([6]; 3–5 h) | RIF concentration in the liver [6] | fraction unbound at 10 min [7]
1 | NNC(=O)c1ccncc1 [INH, isoniazid] | 4.4 µg/g | 3.2 µg/g | 1.79 µg/g | 0.946 | 1.9 µg/mL | 0.31 µg/mL | – | – | – | – | – | – | –
2 | CO[C@H]1/C=C/O[C@@]2(C)Oc3c(C)c(O)c4c(O)c(c(/C=N/N5CCN(C)CC5)c(O)c4c3C2=O)NC(=O)/C(C)=C\C=C\[C@H](C)[C@H](O)[C@@H](C)[C@@H](O)[C@@H](C)[C@H](OC(C)=O)[C@@H]1C [RIF, rifampicin] | – | – | – | – | – | – | 10.11 µg/g | 14.69 µg/g | 60.41 µg/g | 8.32 µg/g | up to 538.5 µg/ml | 22 to 35 µg/mL | 0.273
